One may read the EC50 as the concentration that produces a half-maximal response. What is called IC50 is the midpoint of a concentration-inhibition curve. Read a low IC50 as inhibition by little substance. As usually defined, the Emax is the greatest response seen or fitted, relative to the assay's reference.

Molecules are shown by their SMILES.

The values below come from ChEMBL document CHEMBL1129231, “Bone targeted drugs 2. synthesis of estrogens with hydroxyapatite affinity” (Bioorg Med Chem Lett, 1996).

One test deals with Ishikawa. The experiment in a line: Agonist activity in Ishikawa human endometrial cells. Type of test: functional, cell-based.
A further test concerns the target Estrogen receptor (Rattus norvegicus, UniProt P06211+Q62986). Kind of test: Binding affinity for rat estrogen receptor. It counts as protein assay.
Test [1] concerns the target Estrogen receptor (Rattus norvegicus) (UniProt P06211+Q62986). The experiment in a line: Relative efficacy for estrogen receptor compared to estradiol. It counts as protein assay.

As to `CC[C@@H](c1ccc(O)cc1)[C@H](CCCCn1cc(C(=O)O)c(=O)[nH]1)c1ccc(O)cc1`, it took 1100 nM to reach a half-maximal effect in the test on Ishikawa (EC50). Also, the IC50 at Estrogen receptor was determined as 5 µM.
`CC[C@@H](c1ccc(O)cc1)[C@H](CCCCn1cc(C(=O)O)cn1)c1ccc(O)cc1`: a half-maximal response in the test on Ishikawa (EC50) required 1600 nM.
For `CC[C@H](c1ccc(O)cc1)[C@@H](CC)c1ccc(O)cc1` [HEXESTROL], the Emax in test [1] came to 80%. Besides, in the test with Ishikawa, the EC50 came out at 0.1 nM. This compound gave a concentration for half-maximal inhibition (IC50) at Estrogen receptor of 0.002 µM.
`CC[C@@H](c1ccc(O)cc1)[C@H](Cn1cc(C(=O)O)c(=O)[nH]1)c1ccc(O)cc1`: the response with Ishikawa was half-maximal at 20000 nM (EC50). This compound came in with an IC50 at Estrogen receptor of 100 µM.
